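Test compounds were applied to cells in 96-well plates for 48 hours at 5 doses. At the GI50, growth is halved.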 The source made the active and inactive calls. Cut-off read from the data, not from the text of the source: active = GI50 up to about 1.1 µM and inactive = higher.
How the values were obtained:
Experiment in all cases: inhibition of tumour cell growth, NCI panel, 48 h
NCI-H460 = tested on: NCI-H460
SF-268 = tested on: SF-268
IGROV-1 = tested on: IGROV-1
SNB-19 = tested on: SNB-19
SK-MEL-28 = tested on: SK-MEL-28
RXF 631 = tested on: RXF 631
SF-539 = tested on: SF-539
UACC-257 = tested on: UACC-257
OVCAR-8 = tested on: OVCAR-8
RXF 393 = tested on: RXF 393
HCT-116 = tested on: HCT-116
SF-295 = tested on: SF-295
Malme-3M = tested on: Malme-3M
ACHN = tested on: ACHN
A549 = tested on: A549
LOX IMVI = tested on: LOX IMVI
SK-OV-3 = tested on: SK-OV-3
DMS-114 = tested on: DMS-114
EKVX = tested on: EKVX
HCC 2998 = tested on: HCC 2998
UO-31 = tested on: UO-31
CCRF-CEM = tested on: CCRF-CEM
OVCAR-5 = tested on: OVCAR-5
COLO 205 = tested on: COLO 205
M14 = tested on: M14
DMS-273 = tested on: DMS-273
OVCAR-4 = tested on: OVCAR-4
KM-20L2 = tested on: KM-20L2
SK-MEL-5 = tested on: SK-MEL-5
MOLT-4 = tested on: MOLT-4
K562 = tested on: K562
UACC-62 = tested on: UACC-62
HT-29 = tested on: HT-29
HOP-18 = tested on: HOP-18
HCT-15 = tested on: HCT-15
TK-10 = tested on: TK-10
SNB-78 = tested on: SNB-78
KM12 = tested on: KM12
NCI-H23 = tested on: NCI-H23
NCI-H522 = tested on: NCI-H522
CAKI-1 = tested on: CAKI-1
SK-MEL-2 = tested on: SK-MEL-2
SW-620 = tested on: SW-620
SR = tested on: SR
OVCAR-3 = tested on: OVCAR-3
A498 = tested on: A498
HL-60 = tested on: HL-60
U-251 = tested on: U-251
786-0 = tested on: 786-0
SN12C = tested on: SN12C
HOP-62 = tested on: HOP-62
LXFL 529 = tested on: LXFL 529
M19-MEL = tested on: M19-MEL
RPMI-8226 = tested on: RPMI-8226
DLD-1 = tested on: DLD-1
HOP-92 = tested on: HOP-92
SNB-75 = tested on: SNB-75
XF498 = tested on: XF498

Q: What does the source list for `Cc1nc(N)nc(N)c1CCCCc1ccccc1`?
A: GI50 (NCI-H460): 3.32 µM (inactive); GI50 (SF-268): 11 µM (inactive); GI50 (IGROV-1): 5.41 µM (inactive); GI50 (SNB-19): 32.4 µM (inactive); GI50 (SK-MEL-28): > 10 µM (inactive); GI50 (RXF 631): 11.9 µM (inactive); GI50 (SF-539): 10.7 µM (inactive); GI50 (UACC-257): 10.2 µM (inactive); GI50 (OVCAR-8): 8.2 µM (inactive); GI50 (RXF 393): 11.1 µM (inactive); GI50 (HCT-116): 5.21 µM (inactive); GI50 (SF-295): 6.65 µM (inactive); GI50 (Malme-3M): 13.3 µM (inactive); GI50 (ACHN): 9.2 µM (inactive); GI50 (A549): 3.67 µM (inactive); GI50 (LOX IMVI): 5.83 µM (inactive); GI50 (SK-OV-3): 31.9 µM (inactive); GI50 (DMS-114): 5.02 µM (inactive); GI50 (EKVX): 20 µM (inactive); GI50 (HCC 2998): 10.7 µM (inactive); GI50 (UO-31): 19.4 µM (inactive); GI50 (CCRF-CEM): 3.72 µM (inactive); GI50 (OVCAR-5): 6.93 µM (inactive); GI50 (COLO 205): 8.43 µM (inactive); GI50 (M14): 6.21 µM (inactive); GI50 (DMS-273): 4.7 µM (inactive); GI50 (OVCAR-4): 58.6 µM (inactive); GI50 (KM-20L2): 10.8 µM (inactive); GI50 (SK-MEL-5): 4.39 µM (inactive); GI50 (MOLT-4): 5.3 µM (inactive); GI50 (K562): 0.841 µM (active); GI50 (UACC-62): 5.28 µM (inactive); GI50 (HT-29): 2.47 µM (inactive); GI50 (HOP-18): 42.1 µM (inactive); GI50 (HCT-15): 5.97 µM; GI50 (TK-10): 43.2 µM (inactive); GI50 (SNB-78): 35.3 µM (inactive); GI50 (KM12): 18.1 µM (inactive); GI50 (NCI-H23): 4.29 µM (inactive); GI50 (NCI-H522): 10.2 µM (inactive); GI50 (CAKI-1): 23.4 µM (inactive); GI50 (SK-MEL-2): 16.7 µM (inactive); GI50 (SW-620): 13.7 µM (inactive); GI50 (SR): 13.3 µM (inactive); GI50 (OVCAR-3): 9.95 µM (inactive); GI50 (A498): 18.2 µM (inactive); GI50 (HL-60): 4.55 µM (inactive); GI50 (U-251): 11.2 µM (inactive); GI50 (786-0): 4.52 µM (inactive); GI50 (SN12C): 22.6 µM (inactive); GI50 (HOP-62): 13.6 µM (inactive); GI50 (LXFL 529): 9.89 µM (inactive); GI50 (M19-MEL): 12.4 µM (inactive); GI50 (RPMI-8226): 20.8 µM (inactive); GI50 (DLD-1): 6.15 µM (inactive); GI50 (HOP-92): 22.5 µM (inactive); GI50 (SNB-75): 47 µM (inactive)

Q: For `COc1ccc(C2C(C(=O)O)=C(CO)Oc3cc4c(cc32)OCO4)c(OC)c1` (stereo unspecified), which GI50 (NCI-H460) is on record?
A: The GI50 was > 100 µM (inactive).

Q: What about the GI50 (IGROV-1) of the same compound?
A: Its GI50 is > 100 µM (inactive).

Q: What about the GI50 (SNB-19) of the same compound?
A: The GI50 was 70.5 µM (inactive).

Q: And the GI50 (SK-MEL-28)?
A: The GI50 was 46.2 µM (inactive).

Q: What about the GI50 (RXF 631) of the same compound?
A: The GI50 was 87.3 µM (inactive).

Q: What about the GI50 (SF-539) of the same compound?
A: Its GI50 is 70 µM (inactive).

Q: What about the GI50 (UACC-257) of the same compound?
A: Its GI50 is > 100 µM (inactive).

Q: And the GI50 (OVCAR-8)?
A: Its GI50 is 98.4 µM (inactive).

Q: What about the GI50 (RXF 393) of the same compound?
A: Its GI50 is > 100 µM (inactive).

Q: And the GI50 (HCT-116)?
A: Its GI50 is 78.2 µM (inactive).

Q: What about the GI50 (SF-295) of the same compound?
A: The GI50 was 62.7 µM (inactive).

Q: What about the GI50 (Malme-3M) of the same compound?
A: Its GI50 is > 100 µM (inactive).

Q: What about the GI50 (ACHN) of the same compound?
A: Its GI50 is 63.1 µM (inactive).

Q: And the GI50 (A549)?
A: The GI50 was 70.3 µM (inactive).

Q: What about the GI50 (LOX IMVI) of the same compound?
A: Its GI50 is 45.1 µM (inactive).

Q: And the GI50 (SK-OV-3)?
A: Its GI50 is > 100 µM (inactive).

Q: And the GI50 (DMS-114)?
A: The GI50 was 84.5 µM (inactive).

Q: And the GI50 (EKVX)?
A: The GI50 was > 100 µM (inactive).

Q: And the GI50 (UO-31)?
A: Its GI50 is 36.9 µM (inactive).

Q: What about the GI50 (CCRF-CEM) of the same compound?
A: Its GI50 is 31 µM (inactive).

Q: What about the GI50 (XF498) of the same compound?
A: The GI50 was 9.73 µM (inactive).

Q: What about the GI50 (COLO 205) of the same compound?
A: Its GI50 is 68.7 µM (inactive).

Q: And the GI50 (M14)?
A: The GI50 was > 100 µM (inactive).

Q: What about the GI50 (DMS-273) of the same compound?
A: The GI50 was 60.3 µM (inactive).

Q: And the GI50 (OVCAR-4)?
A: Its GI50 is 78 µM (inactive).

Q: And the GI50 (KM-20L2)?
A: Its GI50 is > 100 µM (inactive).

Q: What about the GI50 (SK-MEL-5) of the same compound?
A: The GI50 was 42.8 µM (inactive).

Q: What about the GI50 (MOLT-4) of the same compound?
A: Its GI50 is 22.5 µM (inactive).

Q: What about the GI50 (K562) of the same compound?
A: The GI50 was 87.5 µM (inactive).

Q: What about the GI50 (UACC-62) of the same compound?
A: The GI50 was 57.3 µM (inactive).

Q: What about the GI50 (HT-29) of the same compound?
A: The GI50 was 67.6 µM (inactive).

Q: And the GI50 (HOP-18)?
A: The GI50 was 98.2 µM (inactive).

Q: And the GI50 (HCT-15)?
A: The GI50 was 67.9 µM.

Q: What about the GI50 (TK-10) of the same compound?
A: Its GI50 is > 100 µM (inactive).

Q: And the GI50 (SNB-78)?
A: The GI50 was > 100 µM (inactive).

Q: And the GI50 (NCI-H23)?
A: Its GI50 is > 100 µM (inactive).

Q: What about the GI50 (CAKI-1) of the same compound?
A: The GI50 was 88.1 µM (inactive).

Q: What about the GI50 (SW-620) of the same compound?
A: The GI50 was > 100 µM (inactive).

Q: And the GI50 (OVCAR-3)?
A: Its GI50 is 57.5 µM (inactive).

Q: And the GI50 (HL-60)?
A: Its GI50 is > 100 µM (inactive).

Q: And the GI50 (U-251)?
A: Its GI50 is 81.1 µM (inactive).

Q: And the GI50 (786-0)?
A: Its GI50 is > 100 µM (inactive).

Q: And the GI50 (SN12C)?
A: Its GI50 is 43.1 µM (inactive).

Q: And the GI50 (HOP-62)?
A: Its GI50 is 18.8 µM (inactive).

Q: And the GI50 (M19-MEL)?
A: The GI50 was 60.4 µM (inactive).

Q: What about the GI50 (RPMI-8226) of the same compound?
A: Its GI50 is > 100 µM (inactive).

Q: And the GI50 (DLD-1)?
A: Its GI50 is 54.7 µM (inactive).

Q: And the GI50 (HOP-92)?
A: Its GI50 is > 100 µM (inactive).

Q: What about the GI50 (SNB-75) of the same compound?
A: Its GI50 is > 100 µM (inactive).
